Measured values: patent US5773225A, “Screening method for the identification of compounds capable of abrogation HIV-1 gag-cyclophilin complex formation” (The Trustees of Columbia University in the City of New York, priority 1994, dated 1998)
Non-standard residues stand in square brackets, D forms with d. Residues, ends and D or L forms follow the SMILES beside them. ξ: configuration not given here. ξNMeBmt = C/C=C/C[C@@H](C)[C@@H](O)C(NC)C(=O)O; NMeL = CN[C@@H](CC(C)C)C(=O)O; NMeV = CN[C@H](C(=O)O)C(C)C; NMeA = CN[C@@H](C)C(=O)O; Abu = CC[C@H](N)C(=O)O; Sar = CNCC(=O)O

What was measured:
[1] = test system: calcineurin (CN); conditions: complex with FKBP; cited from earlier work
[2] = test system: CyPA; assay: Yeast GAL4 two hybrid, Gag/mutant fusions versus clone 2.1 (CyPA); assay type: cell-based, Human; conditions: versus 2.1 / CyPA
Source text: (§1) FIG. 2. The Effect of Mutations in Pr55^gag on the Ability of Gag-GAL4 Fusion Proteins to Activate β-Gal Activity in Yeast Cotransformed with GAL4-CyP Fusion Protein Expression Plasmids. Mutant forms of Pr55^gag were subcloned into pGAL4DB-HG. A schematic of the gag coding sequence is shown, and sequence numbers indicated the nucleotide position in the HXB2C provirus with respect to the 5' end of the 5' long terminal repeat. The names of the mutants indicate the nucleotide sequences deleted or the location of linker inserts. Coding sequences retained by the mutants are shown with a box. Linker insertion mutations are denoted with a triangle. Yeast strain GGY1::171, which carries a GAL1-lacZ fusion gene integrated into the chromosome, was cotransformed with each mutant plasmid against plasmid 2.1 and against plasmid 4.1. Colonies were replica-plated onto nitrocellulose filters and scored for β-gal activity by incubation with X-Gal. Open boxes or triangles indicate that when tested against either 2.1 or 4.1, the mutant had activity equivalent to that of the wild-type (WT) Pr55^gag.
(§2) To localize the portion of Gag that mediates binding to the CyPs, the effect on binding of mutations in the Pr55^gag coding sequence was examined. […] Each of these plasmids encodes a stable fusion protein of the expected size detected on Western blot (Luban et al., 1993). […]

[3] = test system: CyPB; assay: Yeast GAL4 two hybrid, Gag/mutant fusions versus clone 4.1 (CyPB); assay type: cell-based, Human; conditions: versus 4.1 / CyPB
Source text: as §1, §2

[4] = test system: CyPs; conditions: Sigal et al., 1991; cited from earlier work
[5] = test system: T cell activation; conditions: Sigal et al., 1991; cited from earlier work
[6] = test system: FKBP; conditions: Bierer et al., 1990; cited from earlier work
[7] = test system: lymphocyte; conditions: Viscidi et al., 1989; cited from earlier work

## C=CC[C@@H]1/C=C(\C)C[C@H](C)C[C@H](OC)[C@H]2O[C@@](O)(C(=O)C(=O)N3CCCC[C@H]3C(=O)O[C@H](/C(C)=C/[C@@H]3CC[C@@H](O)[C@H](OC)C3)[C@H](C)[C@@H](O)CC1=O)[C@H](C)C[C@@H]2OC [FK506]
[1]
  binding to and inhibiting CN phosphatase activity as FKBP complex: capable of binding to and inhibiting the phosphatase activity of CN

## MPMV pr76^gag: Gag polyprotein of Mason-Pfizer monkey virus
[2]
  two hybrid interaction with CyPA (in words): no detectable activity
[3]
  two hybrid interaction with CyPB (in words): no detectable activity

## C/C=C/C[C@@H](C)[C@@H](O)C1C(=O)N[C@@H](CC)C(=O)N(C)CC(=O)N(C)[C@@H](CC(C)C)C(=O)N[C@@H](C(C)C)C(=O)N(C)[C@@H](C)C(=O)N[C@@H](C)C(=O)N[C@H](C)C(=O)N(C)[C@@H](CC(C)C)C(=O)N(C)[C@@H](CC(C)C)C(=O)N(C)[C@@H](C(C)C)C(=O)N1C (stereo partly shown) [MeAla-CsA] (cyclo(A[dA][NMeL][NMeL][NMeV][ξNMeBmt][Abu][Sar][NMeL]V[NMeA]))
[4]
  binding to CyPs: bind to CyPs
[5]
  suppression of T cell activation: do not suppress T cell activation

## MoMLV Pr65^gag: Gag polyprotein of Moloney murine leukemia virus
[2]
  two hybrid interaction with CyPA (in words): no detectable activity
[3]
  two hybrid interaction with CyPB (in words): no detectable activity

## CO[C@H]1C[C@@H]2CC[C@@H](C)[C@@](O)(O2)C(=O)C(=O)N2CCCC[C@H]2C(=O)O[C@H]([C@H](C)C[C@@H]2CC[C@@H](O)[C@H](OC)C2)CC(=O)[C@H](C)/C=C(\C)[C@@H](O)[C@@H](OC)C(=O)[C@H](C)C[C@H](C)/C=C/C=C/C=C/1C [Rapamycin]
[1]
  binding to and inhibiting CN phosphatase activity as FKBP complex: not capable of binding CN
[6]
  competition with FK506 for binding to FKBP: competes with FK506 for binding to FKBP

B1: Tat protein: Purified Tat protein (HIV-1) (protein, UniProt P04608 1-86, looked up)
Protein Tat: MEPVDPRLEPWKHPGSQPKTACTNCYCKKCCFHCQVCFITKALGISYGRKKRRQRRRAHQNSQTHQASLSKQPTSQPRGDPTGPKE
[7]
  antigen-stimulated lymphocyte proliferation: inhibits
